According to ChEMBL document CHEMBL5465560, “Selectivity Literature for EUbOPEN Chemogenomic Library” (2024):

Tests used:
[1] = biological target: T1, Serine/threonine-protein kinase D1 (Homo sapiens) (UniProt Q15139); assay: Selectivity interaction (KinomeScan (DiscoverX)) EUB0000666a PRKD1; conditions: at 10 µM
T1 sequence (whole entry): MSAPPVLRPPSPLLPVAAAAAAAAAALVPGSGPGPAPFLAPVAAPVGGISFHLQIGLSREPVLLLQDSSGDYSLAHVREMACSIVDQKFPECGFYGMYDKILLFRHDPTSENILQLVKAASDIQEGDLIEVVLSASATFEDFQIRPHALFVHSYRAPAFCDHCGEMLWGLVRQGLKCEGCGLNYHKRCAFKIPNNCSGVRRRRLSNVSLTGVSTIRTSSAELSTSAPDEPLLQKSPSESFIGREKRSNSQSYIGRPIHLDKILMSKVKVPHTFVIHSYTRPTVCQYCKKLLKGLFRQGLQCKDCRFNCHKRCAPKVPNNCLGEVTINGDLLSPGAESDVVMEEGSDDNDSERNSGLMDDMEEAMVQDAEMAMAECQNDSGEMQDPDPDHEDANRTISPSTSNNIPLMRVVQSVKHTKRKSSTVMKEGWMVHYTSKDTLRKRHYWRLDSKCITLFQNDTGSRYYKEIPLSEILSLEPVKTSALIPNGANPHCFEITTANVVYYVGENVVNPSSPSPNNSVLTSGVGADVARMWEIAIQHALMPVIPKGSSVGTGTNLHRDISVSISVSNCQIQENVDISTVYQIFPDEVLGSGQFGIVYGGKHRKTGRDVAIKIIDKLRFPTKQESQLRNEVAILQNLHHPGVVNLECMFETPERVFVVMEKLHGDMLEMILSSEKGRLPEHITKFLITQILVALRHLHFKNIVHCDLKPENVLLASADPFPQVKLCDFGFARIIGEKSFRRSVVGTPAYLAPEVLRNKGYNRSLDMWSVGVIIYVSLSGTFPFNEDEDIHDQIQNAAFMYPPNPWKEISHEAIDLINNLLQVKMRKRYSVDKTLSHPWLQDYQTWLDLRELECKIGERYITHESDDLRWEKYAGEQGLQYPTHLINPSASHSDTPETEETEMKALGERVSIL

[2] = biological target: Epithelial discoidin domain-containing receptor 1 (Homo sapiens) (UniProt Q08345); assay: Selectivity interaction (KinomeScan (DiscoverX)) EUB0000699a DDR1; conditions: at 10 µM
[3] = biological target: Tyrosine-protein kinase receptor Tie-1 (Homo sapiens) (UniProt P35590); assay: Selectivity interaction (KinomeScan (DiscoverX)) EUB0000699a TIE1; conditions: at 10 µM
[4] = biological target: T2, Ephrin type-A receptor 3 (Homo sapiens) (UniProt P29320); conditions: at 10 µM
T2 sequence (whole entry): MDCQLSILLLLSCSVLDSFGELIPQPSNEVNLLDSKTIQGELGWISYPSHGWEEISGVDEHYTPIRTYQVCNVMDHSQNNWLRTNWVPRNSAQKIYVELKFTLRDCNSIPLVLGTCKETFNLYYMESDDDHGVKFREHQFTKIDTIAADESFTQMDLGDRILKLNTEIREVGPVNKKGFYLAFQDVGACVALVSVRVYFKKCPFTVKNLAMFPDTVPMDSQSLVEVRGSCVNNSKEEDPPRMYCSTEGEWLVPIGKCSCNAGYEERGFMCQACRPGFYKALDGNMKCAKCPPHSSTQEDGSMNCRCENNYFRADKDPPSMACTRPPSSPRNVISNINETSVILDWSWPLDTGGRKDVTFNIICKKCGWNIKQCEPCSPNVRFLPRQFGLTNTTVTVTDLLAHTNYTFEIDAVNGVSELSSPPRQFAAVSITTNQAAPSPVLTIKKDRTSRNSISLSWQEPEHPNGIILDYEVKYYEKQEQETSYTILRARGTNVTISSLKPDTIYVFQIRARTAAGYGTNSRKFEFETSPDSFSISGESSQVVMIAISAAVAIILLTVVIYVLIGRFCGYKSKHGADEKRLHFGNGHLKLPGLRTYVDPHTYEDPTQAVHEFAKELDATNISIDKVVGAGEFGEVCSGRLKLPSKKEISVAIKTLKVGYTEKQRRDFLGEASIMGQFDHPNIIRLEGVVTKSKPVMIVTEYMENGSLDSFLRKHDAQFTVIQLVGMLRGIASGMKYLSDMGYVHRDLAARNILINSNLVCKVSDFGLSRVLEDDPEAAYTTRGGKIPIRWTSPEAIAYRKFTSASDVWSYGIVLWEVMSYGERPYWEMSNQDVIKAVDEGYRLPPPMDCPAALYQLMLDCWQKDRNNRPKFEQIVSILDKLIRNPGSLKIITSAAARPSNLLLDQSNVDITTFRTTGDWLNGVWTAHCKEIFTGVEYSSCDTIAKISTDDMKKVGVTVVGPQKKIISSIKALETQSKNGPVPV

[5] = biological target: Serine/threonine-protein kinase 16 (Homo sapiens, UniProt O75716); assay: Selectivity interaction (ActivX KiNativ screen (kinase selectivity in THP-1 cell lysates)) EUB0000639a STK16; type: subcellular; conditions: lysate, at 0.04 µM
[6] = biological target: Tyrosine-protein kinase Fes/Fps (Homo sapiens) (UniProt P07332); assay: Selectivity interaction (ProQinase) EUB0000171b FES
[7] = biological target: T3, Homeodomain-interacting protein kinase 4 (Homo sapiens) (UniProt Q8NE63); assay: Selectivity interaction (KinomeScan (DiscoverX)) EUB0000595a HIPK4; conditions: at 10 µM
T3 sequence (whole entry): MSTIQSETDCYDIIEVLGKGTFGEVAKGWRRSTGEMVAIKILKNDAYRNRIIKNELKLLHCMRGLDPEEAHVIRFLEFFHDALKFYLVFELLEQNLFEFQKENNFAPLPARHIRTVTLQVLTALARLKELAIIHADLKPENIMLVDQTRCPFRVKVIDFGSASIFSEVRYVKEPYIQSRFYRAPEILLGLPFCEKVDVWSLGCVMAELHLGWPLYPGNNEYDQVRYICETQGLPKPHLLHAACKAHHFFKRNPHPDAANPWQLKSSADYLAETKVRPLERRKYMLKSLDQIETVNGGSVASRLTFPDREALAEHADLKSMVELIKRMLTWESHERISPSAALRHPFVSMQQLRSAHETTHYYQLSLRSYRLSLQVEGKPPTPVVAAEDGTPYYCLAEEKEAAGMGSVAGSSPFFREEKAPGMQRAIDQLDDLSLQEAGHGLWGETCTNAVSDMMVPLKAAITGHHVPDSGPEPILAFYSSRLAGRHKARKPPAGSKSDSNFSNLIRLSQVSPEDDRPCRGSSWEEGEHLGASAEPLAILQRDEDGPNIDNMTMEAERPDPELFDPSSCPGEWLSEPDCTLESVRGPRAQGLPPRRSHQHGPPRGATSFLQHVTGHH

[8] = biological target: Homeodomain-interacting protein kinase 1 (Homo sapiens, UniProt Q86Z02); assay: Selectivity interaction (Ambit KINOMEscan and KiNATiv profiling in Jurkat cells) EUB0000090b HIPK1; type: cell-based; conditions: at 1 µM
[9] = biological target: Myosin light chain kinase, smooth muscle (Homo sapiens, UniProt Q15746); assay: Selectivity interaction (KinomeScan (DiscoverX)) EUB0000045b MYLK
Sequence of Myosin light chain kinase, smooth muscle (Q15746 whole entry): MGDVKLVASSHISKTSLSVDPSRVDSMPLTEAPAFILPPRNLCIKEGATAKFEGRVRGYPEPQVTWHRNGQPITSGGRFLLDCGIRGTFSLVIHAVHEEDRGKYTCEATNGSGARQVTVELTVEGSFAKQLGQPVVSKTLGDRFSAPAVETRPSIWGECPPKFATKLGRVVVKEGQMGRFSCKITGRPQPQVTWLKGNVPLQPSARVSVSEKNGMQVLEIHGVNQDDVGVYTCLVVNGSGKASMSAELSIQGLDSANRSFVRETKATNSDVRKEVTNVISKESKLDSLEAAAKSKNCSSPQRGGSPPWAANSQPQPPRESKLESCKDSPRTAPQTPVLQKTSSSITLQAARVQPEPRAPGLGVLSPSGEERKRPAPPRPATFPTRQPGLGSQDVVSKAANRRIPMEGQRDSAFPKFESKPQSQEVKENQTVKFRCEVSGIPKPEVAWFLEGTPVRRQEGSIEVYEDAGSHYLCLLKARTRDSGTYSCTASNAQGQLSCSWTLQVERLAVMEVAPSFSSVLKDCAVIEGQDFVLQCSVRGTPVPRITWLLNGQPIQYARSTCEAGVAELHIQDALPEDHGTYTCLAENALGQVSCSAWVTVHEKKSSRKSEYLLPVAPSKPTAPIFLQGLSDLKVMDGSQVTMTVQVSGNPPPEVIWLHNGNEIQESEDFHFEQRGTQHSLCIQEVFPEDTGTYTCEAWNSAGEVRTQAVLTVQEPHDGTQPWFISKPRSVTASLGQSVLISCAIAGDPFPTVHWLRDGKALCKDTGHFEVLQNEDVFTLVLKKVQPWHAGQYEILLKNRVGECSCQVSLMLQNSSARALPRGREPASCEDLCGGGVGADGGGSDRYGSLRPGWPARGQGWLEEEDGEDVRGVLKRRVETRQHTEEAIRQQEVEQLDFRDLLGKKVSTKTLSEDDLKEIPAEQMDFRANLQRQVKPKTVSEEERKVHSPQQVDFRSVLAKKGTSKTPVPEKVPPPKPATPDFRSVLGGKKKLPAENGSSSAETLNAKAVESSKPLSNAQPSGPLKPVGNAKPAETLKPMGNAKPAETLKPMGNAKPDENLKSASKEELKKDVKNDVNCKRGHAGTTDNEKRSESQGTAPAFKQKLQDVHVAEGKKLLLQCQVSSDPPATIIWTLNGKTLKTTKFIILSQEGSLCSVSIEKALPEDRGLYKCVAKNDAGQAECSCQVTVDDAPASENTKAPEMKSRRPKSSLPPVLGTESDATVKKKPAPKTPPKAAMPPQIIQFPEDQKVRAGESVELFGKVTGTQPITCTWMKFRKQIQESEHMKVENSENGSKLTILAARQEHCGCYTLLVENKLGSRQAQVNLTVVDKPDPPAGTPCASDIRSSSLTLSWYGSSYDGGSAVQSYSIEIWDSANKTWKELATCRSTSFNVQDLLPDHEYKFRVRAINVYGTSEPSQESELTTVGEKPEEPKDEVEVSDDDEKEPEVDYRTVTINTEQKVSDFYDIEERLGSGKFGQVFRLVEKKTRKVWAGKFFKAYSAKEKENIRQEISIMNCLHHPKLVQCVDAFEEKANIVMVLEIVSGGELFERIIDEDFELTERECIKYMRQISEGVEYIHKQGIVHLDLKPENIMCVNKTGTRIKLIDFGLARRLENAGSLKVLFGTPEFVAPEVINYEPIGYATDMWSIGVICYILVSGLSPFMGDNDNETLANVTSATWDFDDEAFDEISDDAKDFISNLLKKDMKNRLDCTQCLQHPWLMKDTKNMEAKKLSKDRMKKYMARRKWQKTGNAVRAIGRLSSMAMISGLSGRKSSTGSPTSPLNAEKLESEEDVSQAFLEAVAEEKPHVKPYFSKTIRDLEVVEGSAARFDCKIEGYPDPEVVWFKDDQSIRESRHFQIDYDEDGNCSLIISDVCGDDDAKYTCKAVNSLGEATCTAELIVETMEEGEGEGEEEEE

Sequence of Tyrosine-protein kinase Fes/Fps (Homo sapiens) (P07332 whole entry): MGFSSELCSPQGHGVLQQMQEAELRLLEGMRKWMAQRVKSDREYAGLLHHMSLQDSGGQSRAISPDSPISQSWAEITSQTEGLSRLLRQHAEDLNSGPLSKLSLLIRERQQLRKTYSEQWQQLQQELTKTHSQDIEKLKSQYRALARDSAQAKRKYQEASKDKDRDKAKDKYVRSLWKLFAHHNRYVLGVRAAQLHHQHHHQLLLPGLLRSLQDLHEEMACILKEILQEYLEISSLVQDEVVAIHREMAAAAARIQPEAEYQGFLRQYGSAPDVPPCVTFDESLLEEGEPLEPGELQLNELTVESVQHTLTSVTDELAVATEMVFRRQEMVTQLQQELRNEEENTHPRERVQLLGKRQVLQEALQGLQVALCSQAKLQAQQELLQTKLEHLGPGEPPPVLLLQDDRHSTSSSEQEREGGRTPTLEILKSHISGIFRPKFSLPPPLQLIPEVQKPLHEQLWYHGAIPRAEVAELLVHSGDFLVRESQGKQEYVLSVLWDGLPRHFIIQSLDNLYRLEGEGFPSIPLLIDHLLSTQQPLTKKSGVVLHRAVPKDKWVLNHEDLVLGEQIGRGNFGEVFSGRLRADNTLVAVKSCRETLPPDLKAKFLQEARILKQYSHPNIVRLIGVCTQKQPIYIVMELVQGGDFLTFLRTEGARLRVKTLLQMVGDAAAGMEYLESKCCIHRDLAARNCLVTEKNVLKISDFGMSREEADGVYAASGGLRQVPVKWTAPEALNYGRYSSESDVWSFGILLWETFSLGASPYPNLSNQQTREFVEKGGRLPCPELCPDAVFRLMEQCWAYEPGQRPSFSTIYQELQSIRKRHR
Sequence of Tyrosine-protein kinase receptor Tie-1 (Homo sapiens) (P35590 whole entry): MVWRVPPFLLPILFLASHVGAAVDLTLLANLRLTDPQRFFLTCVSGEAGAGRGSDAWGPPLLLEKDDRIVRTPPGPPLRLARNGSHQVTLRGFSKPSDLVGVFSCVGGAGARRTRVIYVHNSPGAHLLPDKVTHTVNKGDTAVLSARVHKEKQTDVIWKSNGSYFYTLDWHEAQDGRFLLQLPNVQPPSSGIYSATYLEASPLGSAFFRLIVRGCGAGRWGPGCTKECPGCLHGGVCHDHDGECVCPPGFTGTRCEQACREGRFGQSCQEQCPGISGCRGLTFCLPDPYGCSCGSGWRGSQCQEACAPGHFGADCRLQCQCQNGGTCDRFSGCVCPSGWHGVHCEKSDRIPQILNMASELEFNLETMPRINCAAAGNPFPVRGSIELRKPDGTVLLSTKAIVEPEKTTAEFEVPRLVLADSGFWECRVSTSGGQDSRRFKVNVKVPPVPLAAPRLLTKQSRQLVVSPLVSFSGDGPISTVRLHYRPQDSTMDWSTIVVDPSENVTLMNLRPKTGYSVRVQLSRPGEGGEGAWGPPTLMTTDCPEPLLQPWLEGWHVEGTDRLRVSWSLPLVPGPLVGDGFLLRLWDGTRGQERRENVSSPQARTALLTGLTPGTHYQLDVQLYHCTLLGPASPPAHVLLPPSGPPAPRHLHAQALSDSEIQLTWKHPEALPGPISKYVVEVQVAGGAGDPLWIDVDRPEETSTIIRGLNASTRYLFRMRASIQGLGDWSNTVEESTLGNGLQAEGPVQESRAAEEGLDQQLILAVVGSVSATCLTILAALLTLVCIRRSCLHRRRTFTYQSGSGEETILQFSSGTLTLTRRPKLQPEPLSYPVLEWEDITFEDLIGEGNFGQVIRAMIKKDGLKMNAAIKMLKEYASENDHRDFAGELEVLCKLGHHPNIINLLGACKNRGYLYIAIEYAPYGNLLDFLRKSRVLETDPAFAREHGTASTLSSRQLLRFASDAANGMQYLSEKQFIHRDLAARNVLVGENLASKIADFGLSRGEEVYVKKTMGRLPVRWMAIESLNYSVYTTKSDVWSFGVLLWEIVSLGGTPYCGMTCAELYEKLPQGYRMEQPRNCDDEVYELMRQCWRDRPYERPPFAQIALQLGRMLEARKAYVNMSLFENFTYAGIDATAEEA
Sequence of Homeodomain-interacting protein kinase 1 (Q86Z02 whole entry, looked up): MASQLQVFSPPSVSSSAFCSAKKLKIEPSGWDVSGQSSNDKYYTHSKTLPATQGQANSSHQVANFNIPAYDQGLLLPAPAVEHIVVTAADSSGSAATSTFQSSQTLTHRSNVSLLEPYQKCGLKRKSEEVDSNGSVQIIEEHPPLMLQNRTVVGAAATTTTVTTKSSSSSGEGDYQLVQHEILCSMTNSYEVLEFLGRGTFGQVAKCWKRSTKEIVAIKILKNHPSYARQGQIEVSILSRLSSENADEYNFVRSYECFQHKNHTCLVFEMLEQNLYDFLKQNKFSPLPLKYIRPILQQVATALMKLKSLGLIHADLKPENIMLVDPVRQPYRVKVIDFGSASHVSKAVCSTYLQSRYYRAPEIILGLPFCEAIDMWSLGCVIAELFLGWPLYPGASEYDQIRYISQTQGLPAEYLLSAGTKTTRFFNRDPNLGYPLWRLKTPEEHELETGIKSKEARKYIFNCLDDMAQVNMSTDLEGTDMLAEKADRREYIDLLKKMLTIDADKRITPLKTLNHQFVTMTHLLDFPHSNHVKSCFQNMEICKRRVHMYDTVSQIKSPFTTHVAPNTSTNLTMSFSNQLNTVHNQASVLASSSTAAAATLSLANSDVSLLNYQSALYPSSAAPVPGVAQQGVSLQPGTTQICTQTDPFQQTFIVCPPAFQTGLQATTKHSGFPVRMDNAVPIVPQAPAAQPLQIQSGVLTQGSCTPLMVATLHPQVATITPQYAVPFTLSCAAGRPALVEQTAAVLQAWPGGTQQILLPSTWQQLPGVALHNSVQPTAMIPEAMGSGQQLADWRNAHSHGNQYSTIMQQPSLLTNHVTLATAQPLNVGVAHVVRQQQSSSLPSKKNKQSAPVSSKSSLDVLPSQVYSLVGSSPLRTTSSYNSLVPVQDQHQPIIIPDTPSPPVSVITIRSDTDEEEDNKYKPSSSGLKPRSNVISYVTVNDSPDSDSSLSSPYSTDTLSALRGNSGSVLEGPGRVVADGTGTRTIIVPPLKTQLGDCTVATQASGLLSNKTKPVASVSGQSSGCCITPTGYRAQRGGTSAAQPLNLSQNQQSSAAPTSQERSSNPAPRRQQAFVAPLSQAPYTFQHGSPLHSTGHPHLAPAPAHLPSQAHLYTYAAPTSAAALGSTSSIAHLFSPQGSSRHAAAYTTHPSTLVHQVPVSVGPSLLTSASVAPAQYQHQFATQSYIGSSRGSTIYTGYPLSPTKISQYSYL

O=C(NOC[C@H](O)CO)c1ccc(F)c(F)c1Nc1ccc(I)cc1F
% of control [1]: 100%

CCN(CC)CCCCNc1ncc2cc(-c3cc(OC)cc(OC)c3)c(NC(=O)NC(C)(C)C)nc2n1
% of control [2]: 1.1%
% of control [3]: 12%
% of control [4]: 100%

CC[C@@H]1[C@H](F)C(=O)N[C@@H]1COc1nccc2cc(C(N)=O)c(OC)cc12 [ZIMLOVISERTIB]
% of inhibition [5]: 13.8%

C=CC(=O)Nc1cccc(C(=O)Nc2ccc(Nc3cc(-c4[nH]c(SC)nc4C)ccn3)cc2)c1
% of control ([6]; at 1 µM): 88%
% of control ([6]; at 5 µM): 91%

COCC(=O)NC/C=C/c1ccc2ncnc(Nc3ccc(Oc4ccc(C)nc4)c(C)c3)c2c1 [CP-724714]
% of control [7]: 95%

CN(C)C/C=C/C(=O)Nc1ccc(C(=O)N2CCCC(Nc3ncc(Cl)c(-c4c[nH]c5ccccc45)n3)C2)cc1 (stereo unspecified)
% of control [8]: 80%

C=CC(=O)Nc1cc(-n2c(=O)ccc3cnc4ccc(-c5ccc(NS(C)(=O)=O)cc5)cc4c32)ccc1C
% of control ([9]; at 1 µM): 90%
% of control ([9]; at 10 µM): 100%
